Reference: ChEMBL document CHEMBL4270538, “Targeting prohibitin with small molecules to promote melanogenesis and apoptosis in melanoma cells” (Eur J Med Chem, 2018)
Activity calls are given as the source filed them. The calls are words filed in the database; no cut-off is given here.

Legend:
[1] = target: Prohibitin-2 (Homo sapiens) (UniProt Q99623); test: Induction of PHB2-mediated melanogenesis in human HBL cells assessed as pigmentation at 1 uM after 10 days relative to control; format: cell-based
Prohibitin-2 (Homo sapiens), sequence (Q99623 whole entry): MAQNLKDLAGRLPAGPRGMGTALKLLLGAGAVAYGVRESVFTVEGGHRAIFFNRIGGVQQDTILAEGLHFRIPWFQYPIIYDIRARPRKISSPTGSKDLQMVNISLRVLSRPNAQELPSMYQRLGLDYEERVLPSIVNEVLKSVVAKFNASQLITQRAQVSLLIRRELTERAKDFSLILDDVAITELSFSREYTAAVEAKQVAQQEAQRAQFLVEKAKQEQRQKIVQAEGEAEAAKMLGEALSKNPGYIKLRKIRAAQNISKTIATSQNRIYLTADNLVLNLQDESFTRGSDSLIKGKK

[2] = target: Prohibitin-2 (Homo sapiens) (UniProt Q99623); test: Induction of PHB2-mediated melanogenesis in human HBL cells assessed as pigmentation at 10 uM after 10 days relative to control; format: cell-based
[3] = target: T1, Prohibitin 1 (Homo sapiens) (UniProt P35232); test: Binding affinity to PHB1 in human HBL cells using affigel conjugated compound after overnight incubation by pull down assay; format: cell-based
T1 sequence (whole entry): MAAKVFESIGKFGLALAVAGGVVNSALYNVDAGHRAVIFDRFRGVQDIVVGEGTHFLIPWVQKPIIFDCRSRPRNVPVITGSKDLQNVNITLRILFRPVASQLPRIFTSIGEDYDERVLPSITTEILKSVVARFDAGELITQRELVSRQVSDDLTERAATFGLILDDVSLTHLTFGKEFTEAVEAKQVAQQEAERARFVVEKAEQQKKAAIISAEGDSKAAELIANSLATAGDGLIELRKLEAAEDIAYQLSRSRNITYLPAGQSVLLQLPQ

[4] = target: T1, Prohibitin 1 (Homo sapiens); test: Downregulation of PHB1 in human HBL cells at 1 to 10 uM after 24 hrs by Western blot analysis; format: cell-based
[5] = target: Prohibitin-2 (Homo sapiens) (UniProt Q99623); test: Binding affinity to PHB2 in human HBL cells assessed as LC3-2 accumulation at 1 to 10 uM after 24 hrs by Western blot analysis; format: cell-based
[6] = target: Prohibitin-2 (Homo sapiens) (UniProt Q99623); test: Binding affinity to PHB2 in human HBL cells assessed as upregulation of MITF protein expression at 1 to 10 uM after 24 hrs by Western blot analysis; format: cell-based
[7] = target: Prohibitin-2 (Homo sapiens) (UniProt Q99623); test: Binding affinity to PHB2 in human HBL cells assessed as upregulation of tyrosinase protein expression at 1 to 10 uM after 24 hrs by Western blot analysis; format: cell-based
[8] = tested on: PC-3; test: Inhibition of cell proliferation in human PC3 cells at 1 uM after 72 hrs by MTS assay relative to control; format: functional; conditions: PC-3, 72 h
[9] = tested on: LNCaP; test: Inhibition of cell proliferation in human LNCAP cells at 1 uM after 72 hrs by MTS assay relative to control; format: functional
[10] = Inhibition of cell proliferation in human EPC cells at 1 uM after 72 hrs by MTS assay relative to control; format: functional
[11] = tested on: HT-29; test: Inhibition of cell proliferation in human HT-29 cells at 1 uM after 72 hrs by MTS assay relative to control; format: functional; conditions: HT-29, 72 h
[12] = tested on: HCT-116; test: Inhibition of cell proliferation in human HCT116 cells at 1 uM after 72 hrs by MTS assay relative to control; format: functional; conditions: HCT-116, 72 h
[13] = tested on: MCF7; test: Inhibition of cell proliferation in human MCF7 cells at 1 uM after 72 hrs by MTS assay relative to control; format: functional; conditions: MCF7, 72 h
[14] = tested on: HL-60; test: Inhibition of cell proliferation in human HL60 cells at 1 uM after 72 hrs by MTS assay relative to control; format: functional; conditions: HL-60, 72 h
[15] = tested on: KB; test: Inhibition of cell proliferation in human KB cells at 1 uM after 72 hrs by MTS assay relative to control; format: functional
[16] = tested on: HBL; test: Inhibition of cell proliferation in human HBL cells at 1 uM after 72 hrs by MTS assay relative to control; format: functional
[17] = tested on: PC-3; test: Inhibition of cell proliferation in human PC3 cells at 10 uM after 72 hrs by MTS assay relative to control; format: functional; conditions: PC-3, 72 h
[18] = tested on: LNCaP; test: Inhibition of cell proliferation in human LNCAP cells at 10 uM after 72 hrs by MTS assay relative to control; format: functional
[19] = Inhibition of cell proliferation in human EPC cells at 10 uM after 72 hrs by MTS assay relative to control; format: functional
[20] = tested on: HT-29; test: Inhibition of cell proliferation in human HT-29 cells at 10 uM after 72 hrs by MTS assay relative to control; format: functional; conditions: HT-29, 72 h
[21] = tested on: HCT-116; test: Inhibition of cell proliferation in human HCT116 cells at 10 uM after 72 hrs by MTS assay relative to control; format: functional; conditions: HCT-116, 72 h
[22] = tested on: MCF7; test: Inhibition of cell proliferation in human MCF7 cells at 10 uM after 72 hrs by MTS assay relative to control; format: functional; conditions: MCF7, 72 h
[23] = tested on: HL-60; test: Inhibition of cell proliferation in human HL60 cells at 10 uM after 72 hrs by MTS assay relative to control; format: functional; conditions: HL-60, 72 h
[24] = tested on: KB; test: Inhibition of cell proliferation in human KB cells at 10 uM after 72 hrs by MTS assay relative to control; format: functional
[25] = tested on: HBL; test: Inhibition of cell proliferation in human HBL cells at 10 uM after 72 hrs by MTS assay relative to control; format: functional
[26] = tested on: HL-60; test: Inhibition of cell proliferation in human HL60 cells after 72 hrs by MTS assay; format: functional, cell-based; conditions: HL-60, 72 h
[27] = tested on: KB; test: Inhibition of cell proliferation in human KB cells after 72 hrs by MTS assay; format: functional, cell-based
[28] = target: Prohibitin-2 (Homo sapiens) (UniProt Q99623); test: Binding affinity to PHB2 in human HBL cells assessed as upregulation of ERK phosphorylation at 1 to 10 uM after 24 hrs by Western blot analysis; format: cell-based
[29] = target: RAC-alpha serine/threonine-protein kinase (Homo sapiens) (UniProt P31749); test: Inhibition of Akt phosphorylation in human HBL cells at 1 to 10 uM after 24 hrs by Western blot analysis; format: cell-based
RAC-alpha serine/threonine-protein kinase (Homo sapiens), sequence (P31749 whole entry): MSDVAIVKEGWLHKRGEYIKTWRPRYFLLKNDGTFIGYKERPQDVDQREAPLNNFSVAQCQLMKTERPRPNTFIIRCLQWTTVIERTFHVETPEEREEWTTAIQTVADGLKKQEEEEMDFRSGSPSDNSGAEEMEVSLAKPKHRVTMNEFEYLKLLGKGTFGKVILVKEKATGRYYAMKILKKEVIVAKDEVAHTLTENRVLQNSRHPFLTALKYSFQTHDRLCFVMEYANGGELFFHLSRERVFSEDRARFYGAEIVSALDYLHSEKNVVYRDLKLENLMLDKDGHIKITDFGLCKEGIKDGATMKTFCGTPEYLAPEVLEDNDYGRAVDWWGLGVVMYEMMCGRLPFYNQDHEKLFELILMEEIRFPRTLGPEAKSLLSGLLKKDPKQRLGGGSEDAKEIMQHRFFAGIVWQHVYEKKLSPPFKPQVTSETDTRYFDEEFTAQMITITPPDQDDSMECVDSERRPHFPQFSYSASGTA

Fc1c(F)c(F)c(Oc2nc(N3CCC(N4CCCCC4)CC3)nc(N3CCCc4ccccc4C3)n2)c(F)c1F
fold change (FC) [1]: 0.87 | fold change (FC) [2]: 1.79 | Activity [3]: Active

NCCOCCOCCNc1nc(NCc2cccc(F)c2)nc(Oc2c(F)c(F)c(F)c(F)c2F)n1
fold change (FC) [1]: 1.05 | fold change (FC) [2]: 1.25 | Activity [4]: Active | Activity [5]: Active | Activity [6]: Active | Activity [7]: Active | inhibition at 1 µM [8]: 15% | inhibition at 1 µM [9]: 11% | inhibition at 1 µM [10]: 27% | inhibition at 1 µM [11]: 12% | inhibition at 1 µM [12]: 10% | inhibition at 1 µM [13]: 11% | inhibition at 1 µM [14]: 31% | inhibition at 1 µM [15]: 29% | inhibition at 1 µM [16]: 9% | inhibition at 10 µM [17]: 52% | inhibition at 10 µM [18]: 32% | inhibition at 10 µM [19]: 58% | inhibition at 10 µM [20]: 20% | inhibition at 10 µM [21]: 36% | inhibition at 10 µM [22]: 27% | inhibition at 10 µM [23]: 59% | inhibition at 10 µM [24]: 89% | inhibition at 10 µM [25]: 18% | IC50 [26]: 15 µM | IC50 [27]: 33 µM | Activity [28]: Active | inhibition [29]: Active
